Assay results: PMC9572521, “Synthesis, Docking Studies and Pharmacological Evaluation of Serotoninergic Ligands Containing a 5-Norbornene-2-Carboxamide Nucleus” (Molecules, 2022)
Where two headings read alike, the source gives them in different places.

Tests used:
[1] = target: T1, 5-HT1A receptor (Rattus norvegicus, UniProt P19327); test: Functional 5-HT1A receptor [35S]GTPγS assay (agonist mode); type: biochemical; conditions: for Emax: read-out: 5-HT1A Receptor G-Protein Stimulation Emax (%) ± SEM;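 on all read-outs here: male Sprague-Dawley rat hippocampal membranes incubated 90 min at 37 °C, bound label counted by scintillation after filtration, non-specific binding defined with 100 µM unlabeled GTPγS, one-site curve fit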
T1 construct: 15 μg/mL of hippocampus homogenate was incubated in triplicate with 0.8 nM; from tissue; host or cells: rat hippocampus homogenate
T1 sequence (P19327 1-422): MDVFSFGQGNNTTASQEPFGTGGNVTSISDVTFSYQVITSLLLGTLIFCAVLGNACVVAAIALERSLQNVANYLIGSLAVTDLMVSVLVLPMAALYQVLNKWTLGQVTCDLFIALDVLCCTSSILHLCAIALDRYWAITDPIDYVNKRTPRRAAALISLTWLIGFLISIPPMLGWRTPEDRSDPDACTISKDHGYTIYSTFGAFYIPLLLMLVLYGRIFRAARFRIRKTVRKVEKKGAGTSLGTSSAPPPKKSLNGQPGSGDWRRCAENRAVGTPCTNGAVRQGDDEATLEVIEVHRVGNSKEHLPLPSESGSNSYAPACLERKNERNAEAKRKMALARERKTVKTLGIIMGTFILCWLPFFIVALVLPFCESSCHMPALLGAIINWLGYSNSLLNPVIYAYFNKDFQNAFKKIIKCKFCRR

[2] = target: T2, D2 receptor (Rattus norvegicus, UniProt P61169); test: Functional D2 receptor [35S]GTPγS assay (antagonist mode vs dopamine; basal for agonism); type: biochemical; conditions: against 40 µM dopamine, rat striatal homogenate;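 further: [35S]GTPγS binding counted by scintillation after 60 min at 30 °C, nonspecific binding defined with 100 µM unlabeled GTPγS, inhibition curves fitted by one-site nonlinear regression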
T2 construct: 15μg/mL of striatal homogenate was incubated in triplicate; from tissue; host or cells: rat striatum homogenate

[3] = target: 5-HT2A receptor (Rattus norvegicus, UniProt P14842); test: 5-HT2A competition binding assay ([3H]ketanserin, frontal cortex homogenates)
[4] = target: T3, human 5-HT2C receptor (Homo sapiens, UniProt P28335); test: 5-HT2C competition binding assay ([3H]mesulergine, transfected cell membranes)
T3 sequence (P28335 33-458): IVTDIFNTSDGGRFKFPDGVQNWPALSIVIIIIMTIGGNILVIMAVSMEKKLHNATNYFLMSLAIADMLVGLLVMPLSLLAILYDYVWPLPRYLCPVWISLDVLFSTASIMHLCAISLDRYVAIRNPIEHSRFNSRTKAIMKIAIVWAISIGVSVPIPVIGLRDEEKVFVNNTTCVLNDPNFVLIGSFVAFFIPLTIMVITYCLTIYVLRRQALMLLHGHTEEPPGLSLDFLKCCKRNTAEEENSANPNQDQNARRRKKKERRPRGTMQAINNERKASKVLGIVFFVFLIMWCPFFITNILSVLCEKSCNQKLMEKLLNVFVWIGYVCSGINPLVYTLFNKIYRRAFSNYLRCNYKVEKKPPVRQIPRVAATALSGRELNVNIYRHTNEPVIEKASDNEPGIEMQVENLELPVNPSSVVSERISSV

[5] = [35S]GTPγS, rat hippocampus homogenate, read-out: 5-HT1A Receptor G-Protein Stimulation EC50 (95% CI)
[6] = [35S]GTPγS, rat hippocampus homogenate
[7] = read-out: D2 receptor antagonistic activity IC50 (95% CI)
[8] = read-out: D2 receptor antagonistic activity pIC50 (M ± SEM) (converted)
[9] = [3H]mesulergine, human 5-HT2C membranes, read-out: 5-HT2C Ki (95% CI)
[10] = [3H]mesulergine, human 5-HT2C membranes, ± SEM, read-out: 5-HT2C pKi (converted)
[11] = [35S]GTPγS, rat hippocampus homogenate, ± SEM
[12] = ± SEM, read-out: 5-HT2A pKi (converted)

T2 sequence (P61169 whole entry): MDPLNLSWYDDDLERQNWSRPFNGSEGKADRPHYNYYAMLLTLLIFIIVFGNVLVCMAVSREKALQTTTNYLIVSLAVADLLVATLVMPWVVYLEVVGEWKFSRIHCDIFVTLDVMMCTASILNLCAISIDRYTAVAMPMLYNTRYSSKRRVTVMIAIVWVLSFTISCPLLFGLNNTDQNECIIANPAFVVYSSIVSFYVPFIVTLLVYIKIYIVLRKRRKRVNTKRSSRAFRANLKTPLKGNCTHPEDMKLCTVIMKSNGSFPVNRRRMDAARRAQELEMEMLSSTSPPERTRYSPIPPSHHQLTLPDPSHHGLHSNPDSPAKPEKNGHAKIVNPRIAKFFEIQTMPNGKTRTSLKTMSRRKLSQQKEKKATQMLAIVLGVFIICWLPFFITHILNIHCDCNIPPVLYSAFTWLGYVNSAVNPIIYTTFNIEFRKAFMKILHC
Chain of 5-HT2A receptor (P14842 whole entry): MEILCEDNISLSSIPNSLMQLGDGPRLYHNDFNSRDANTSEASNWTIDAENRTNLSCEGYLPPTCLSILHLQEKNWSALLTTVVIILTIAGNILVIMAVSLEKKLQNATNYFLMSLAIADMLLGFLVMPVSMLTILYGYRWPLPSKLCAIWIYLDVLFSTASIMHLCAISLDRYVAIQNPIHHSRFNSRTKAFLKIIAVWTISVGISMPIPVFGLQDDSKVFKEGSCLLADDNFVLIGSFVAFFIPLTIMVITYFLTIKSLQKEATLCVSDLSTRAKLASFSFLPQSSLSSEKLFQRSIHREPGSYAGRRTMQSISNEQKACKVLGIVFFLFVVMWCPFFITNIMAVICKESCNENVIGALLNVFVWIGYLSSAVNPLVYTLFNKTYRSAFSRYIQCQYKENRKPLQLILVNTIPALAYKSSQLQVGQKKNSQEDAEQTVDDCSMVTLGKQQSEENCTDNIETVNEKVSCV

Structure (SMILES) | EC50 [1, 5] [nM] | Emax [1, 6] [%] | IC50 [2, 7] [nM] | Ki ([3]; read-out: 5-HT2A Ki (95% CI)) [nM] | Ki [4, 9] [nM] | 5-HT1A Receptor G-Protein Stimulation Emax (%) ± SEM [1, 6] | other results
COc1ccccc1N1CCN(CCCNC(=O)C2CC3C=CC2C3)CC1 (single isomer, unassigned) [Norbo-6, endo-N-(3-(4-(2-methoxyphenyl)piperazin-1-yl)propyl)bicyclo[2.2.1]hept-5-ene-2-carboxamide] | 3220 | 131 ± 5.5 | 59500 | 88.7 | 1030 | – | IC50 [2, 8]: 60300 nM
CCCN(CCC)C1CCc2cccc(O)c2C1 (stereo not shown) [Norbo 8-OH-DPAT, reference compound] | – | – | – | – | – | – | Emax [1]: 154 ± 2.3%
O=C(NCCCN1CCN(c2ccccc2)CC1)C1CC2C=CC1C2 (stereo not drawn) [Norbo-1, Exo-N-(3-(4-phenylpiperazin-1-yl)propyl)bicyclo[2.2.1]hept-5-ene-2-carboxamide] | 1200 | 174 ± 4.15 | 101000 | 74 | 3890 | – | –
O=C(NCCCN1CCN(c2ccccc2)CC1)C1CC2C=CC1C2 (stereo not drawn) [Norbo-2, endo-N-(3-(4-phenylpiperazin-1-yl)propyl)bicyclo[2.2.1]hept-5-ene-2-carboxamide] | 1630 | – | 106000 | 99.1 | 1610 | 188 ± 4.9 % | EC50 ([1]; [35S]GTPγS, rat hippocampus homogenate, ± SEM, read-out: 5-HT1A Receptor G-Protein Stimulation pEC50 (converted)): 1660 nM
Cc1cccc(N2CCN(CCCNC(=O)C3CC4C=CC3C4)CC2)c1C (stereo not drawn) [Norbo-3, Exo-N-(3-(4-(2,3-dimethylphenyl)piperazin-1-yl)propyl)bicyclo[2.2.1]hept-5-ene-2-carboxamide] | 177 | 185 ± 3.2 | 71000 | 23.5 | 250 | – | –
COc1ccc(N2CCN(CCCNC(=O)C3CC4C=CC3C4)CC2)cc1 (stereo not drawn) [Norbo-7, Exo-N-(3-(4-(4-methoxyphenyl)piperazin-1-yl)propyl)bicyclo[2.2.1]hept-5-ene-2-carboxamide] | 348 | 169 ± 3.5 | 51500 | 105 | 51.3 | – | –
COc1ccc(N2CCN(CCCNC(=O)C3CC4C=CC3C4)CC2)cc1 (stereo not drawn) [Norbo-8, endo-N-(3-(4-(4-methoxyphenyl)piperazin-1-yl)propyl) bicyclo[2.2.1]hept-5-ene-2-carboxamide] | 165 | – | 60400 | 127 | 398 | 167 ± 2.3 % | –
O=C(NCCCN1CCN(c2ccccc2Cl)CC1)C1CC2C=CC1C2 (stereo not drawn) [Norbo-9, Exo-N-(3-(4-(2-chlorophenyl)piperazin-1-yl)propyl) bicyclo[2.2.1]hept-5-ene-2-carboxamide] | 207 | 149 ± 3.1 | 20100 | 109 | 2790 | – | IC50 [2, 8]: 20400 nM
O=C(NCCCN1CCN(c2ccccc2Cl)CC1)C1CC2C=CC1C2 (stereo not drawn) [Norbo-10, endo-N-(3-(4-(2-chlorophenyl)piperazin-1-yl)propyl)bicyclo[2.2.1]hept-5-ene-2-carboxamide] | 198 | – | 21500 | 254 | < 40 | 163 ± 2.4 % | Ki [4, 10]: 13.5 nM
O=C(NCCCN1CCN(c2ccc(Cl)cc2)CC1)C1CC2C=CC1C2 (stereo not drawn) [Norbo-11, Exo-N-(3-(4-(4-chlorophenyl)piperazin-1-yl)propyl)bicyclo[2.2.1]hept-5-ene-2-carboxamide] | – | – | 31200 | 149 | < 40 | no activity | 5-HT1A Receptor G-Protein Stimulation EC50 (95% CI, nM) [1, 6]: no activity; 5-HT1A Receptor G-Protein Stimulation pEC50 [1, 11]: no activity; IC50 [2, 8]: 31600 nM; Ki [4, 10]: 30.9 nM
O=C(NCCCN1CCN(c2ccc(Cl)cc2)CC1)C1CC2C=CC1C2 (stereo not drawn) [Norbo-12, endo-N-(3-(4-(4-chlorophenyl)piperazin-1-yl)propyl)bicyclo[2.2.1]hept-5-ene-2-carboxamide] | 1870 | 127 ± 5.1 | 100000 | 227 | 34900 | – | IC50 [2, 8]: 102000 nM
O=C(NCCCN1CCN(c2ccc(Cl)c(Cl)c2)CC1)C1CC2C=CC1C2 (stereo not drawn) [Norbo-13, Exo-N-(3-(4-(3,4-dichlorophenyl)piperazin-1-yl)propyl)bicyclo[2.2.1]hept-5-ene-2-carboxamide] | – | – | 68900 | 28.8 | 122 | no activity | 5-HT1A Receptor G-Protein Stimulation EC50 (95% CI, nM) [1, 6]: no activity; 5-HT1A Receptor G-Protein Stimulation pEC50 [1, 11]: no activity
O=C(NCCCN1CCN(c2ccccc2F)CC1)C1CC2C=CC1C2 (stereo not drawn) [Norbo-15, Exo-N-(3-(4-(2-fluorophenyl)piperazin-1-yl)propyl)bicyclo[2.2.1]hept-5-ene-2-carboxamide] | 926 | – | 62700 | 82.6 | 31 | 161 ± 4.5% | Ki [4, 10]: 31.6 nM
O=C(NCCCN1CCN(c2ccccn2)CC1)C1CC2C=CC1C2 (stereo not drawn) [Norbo-21, Exo-N-(3-(4-(pyridin-2-yl)piperazin-1-yl)propyl)bicyclo[2.2.1]hept-5-ene-2-carboxamide] | 588 | 181 ± 2.5 | 181000 | 258 | 1340 | – | –
O=C(NCCCN1CCN(c2ccccn2)CC1)C1CC2C=CC1C2 (stereo not drawn) [Norbo-22, endo-N-(3-(4-(pyridin-2-yl)piperazin-1-yl)propyl)bicyclo[2.2.1]hept-5-ene-2-carboxamide] | 782 | – | 125000 | – | 873 | 186 ± 4.4 % | Ki [3, 12]: 355 nM
O=C(NCCCN1CCN(c2ncccn2)CC1)C1CC2C=CC1C2 (stereo not drawn) [Norbo-23, Exo-N-(3-(4-(pyrimidin-2-yl)piperazin-1-yl)propyl)bicyclo[2.2.1]hept-5-ene-2-carboxamide] | 2400 | 181 ± 4.1 | 255000 | 1080 | 353 | – | –
O=C(NCCCN1CCN(c2ncccn2)CC1)C1CC2C=CC1C2 (stereo not drawn) [Norbo-24, endo-N-(3-(4-(pyrimidin-2-yl)piperazin-1-yl)propyl)bicyclo[2.2.1]hept-5-ene-2-carboxamide] | 1720 | – | 206000 | – | 211 | 177 ± 6.1 % | Ki [3, 12]: 1380 nM; Ki [4, 10]: 214 nM
O=C(NCCCN1CCN(Cc2ccc3c(c2)OCO3)CC1)C1CC2C=CC1C2 (stereo not drawn) [Norbo-25, Exo-N-(3-(4-(benzo[d][1,3]dioxol-5-ylmethyl)piperazin-1-yl)propyl)bicyclo[2.2.1]hept-5-ene-2-carboxamide] | 1910 | 184 ± 6.4 | – | – | 1050 | – | D2 receptor antagonistic activity IC50 (95% CI, µM) [2]: no activity; D2 receptor antagonistic activity pIC50 (M ± SEM) [2]: no activity; Ki [3, 12]: 372 nM
O=C(NCCCN1CCN(Cc2ccc3c(c2)OCO3)CC1)C1CC2C=CC1C2 (stereo not drawn) [Norbo-26, endo-N-(3-(4-(benzo[d][1,3]dioxol-5-ylmethyl)piperazin-1-yl)propyl)bicyclo[2.2.1]hept-5-ene-2-carboxamide] | 7500 | – | – | 584 | – | 178 ± 22.6 % | D2 receptor antagonistic activity IC50 (95% CI, µM) [2]: no activity; D2 receptor antagonistic activity pIC50 (M ± SEM) [2]: no activity; Ki [4, 10]: 2290 nM
COc1cc(OC)c(C(=O)CCCCN2CCC3(CC2)NC(=O)NC3=O)cc1NS(=O)(=O)c1ccc(C(F)(F)F)cc1 [RS102221, reference compound] | – | – | – | – | – | – | 5-HT2C pKi [4]: 8.25 ± 0.21; Ki ([4]; read-out: 5-HT2C Ki (95% CI)): 5.56 nM
